Laboratory results from PubChem BioAssay (NCI).
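Five compound concentrations were applied to cells in 96-well plates for 48 hours; endpoints were derived by simple linear interpolation of the resulting dose-response curve. At the GI50, growth is halved. The concentration for full growth arrest is given as TGI.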

Key:
Assay in all cases: NCI tumour cell line growth inhibition, 48 h
[1] = tested on: A549 NSCLC
[2] = tested on: CCRF-CEM leukemia
[3] = tested on: EKVX NSCLC
[4] = tested on: HCC-2998 colon
[5] = tested on: HOP-62 NSCLC
[6] = tested on: OVCAR-5 ovarian
[7] = tested on: SK-MEL-2 melanoma
[8] = tested on: SK-OV-3 ovarian
[9] = tested on: SN12C renal
[10] = tested on: SK-MEL-5 melanoma

Row | SMILES | GI50 [1] | TGI [1] | GI50 [2] | TGI [2] | GI50 [3] | TGI [3] | GI50 [4] | TGI [4] | GI50 [5] [µM] | TGI [5] [µM] | GI50 [6] [µM] | TGI [6] [µM] | GI50 [7] | TGI [7] | GI50 [8] | TGI [8] | GI50 [9] | TGI [9] | GI50 [10] | TGI [10]
1 | COc1ccc(OCC(O)CN2CCN(c3ccc(Cl)cc3)CC2)cc1 (stereo not given) | > 100 µM | > 100 µM | > 100 µM | > 100 µM | 9.82 µM | > 100 µM | > 100 µM | > 100 µM | 28.4 | > 100 | > 100 | > 100 | > 100 µM | > 100 µM | > 100 µM | > 100 µM | > 100 µM | > 100 µM |  | 
2 | O=C(OC[C@@H]1CO1)c1cccc2c(=O)c3ccccc3[nH]c12 | 0.468 µM | 5.68 µM | 0.0896 µM | > 100 µM | 0.856 µM | 3.72 µM | 0.312 µM | 1.25 µM | 0.357 | 3.45 | 0.474 | 4.17 | 0.251 µM | 0.595 µM |  |  | 0.196 µM | 1.41 µM | 0.21 µM | 0.473 µM
3 | CC1=CCN(c2ccccn2)OC1c1ccccc1 (stereo not given) |  | > 100 µM |  | > 100 µM |  | > 100 µM |  | > 100 µM |  | > 100 |  | > 100 |  | > 100 µM |  | > 100 µM |  | > 100 µM |  | 
4 | COc1ccc(Cc2nc3cc(OC)c(OC)cc3c(=O)[nH]2)cc1 | 3.61 µM | > 54.3 µM | 6.53 µM | > 100 µM | 17.3 µM | > 92.5 µM | 2.98 µM | 17.1 µM | 8.69 | > 81.5 | 3.74 | > 74.1 |  |  | 88.5 µM | > 100 µM | 11.2 µM | > 100 µM | 9.33 µM | 28.8 µM
5 | COCC1N=C(c2cc(OC)c(OC)c(OC)c2-c2cc3c(cc2[C@H](C)O)OCO3)O[C@H]1c1ccccc1 (stereo not given in full) |  | > 100 µM |  | > 10 µM |  | > 100 µM |  | > 100 µM |  |  |  |  |  | > 100 µM |  | > 100 µM |  | > 100 µM |  | > 100 µM
6 | COc1cc(/C=C\c2cc(OC)c(OC)c(OC)c2)cc(NS(=O)(=O)c2ccc(Cl)cc2)c1OC | 0.716 µM | > 100 µM | 0.388 µM | > 100 µM |  |  | 1.98 µM | > 100 µM | 0.414 | > 100 | 0.726 | > 100 | 0.613 µM | 50.7 µM | 0.449 µM | > 100 µM | 0.75 µM | > 100 µM | 0.297 µM | 1.17 µM
7 | CN(C)c1ccc(O[Si](Oc2ccc(N(C)C)cc2)(Oc2ccc(N(C)C)cc2)Oc2ccc(N(C)C)cc2)cc1 |  | > 100 µM |  | > 100 µM |  | > 100 µM |  | > 100 µM |  | > 100 |  | > 100 |  |  |  | > 100 µM |  | > 100 µM |  | > 100 µM
8 | Nc1ncc(C2[C@H](CNC(=O)c3cc(Br)c[nH]3)C(CNC(=O)c3cc(Br)c[nH]3)[C@@H]2c2cnc(N)[nH]2)[nH]1 (stereo not given in full) | > 50 µM | > 50 µM | > 50 µM | > 50 µM | 5.56 µM | 45.6 µM | > 50 µM | > 50 µM | > 50 | > 50 | > 50 | > 50 | > 50 µM | > 50 µM |  |  | 21.4 µM | > 50 µM | > 50 µM | > 50 µM
9 | COc1cc(N(CCC#N)CCC#N)ccc1/C(N=Nc1ccc(C(=O)O)cc1)=N/NC(=O)c1cc(Br)ccc1O | 79.4 µg/mL | > 150 µg/mL | 82.4 µg/mL | > 150 µg/mL | 137 µg/mL | > 150 µg/mL | 38.3 µg/mL | 81.7 µg/mL |  |  |  |  | > 150 µg/mL | > 150 µg/mL | 86.2 µg/mL | > 150 µg/mL | 102 µg/mL | > 150 µg/mL | 69.7 µg/mL | > 150 µg/mL
10 | COC(=O)C1CCC(=O)N1/C(C)=N/NC(=O)Nc1ccc(Cl)c(Cl)c1 (stereo not given) |  | > 100 µM |  | > 100 µM |  | > 100 µM |  | > 100 µM |  | > 100 |  |  |  | > 100 µM |  | > 100 µM |  | > 100 µM |  | > 100 µM
11 | O=C(O)Cn1ccc(=O)c2cc([N+](=O)[O-])ccc21 |  | > 100 µM |  | > 100 µM |  |  |  | > 100 µM |  | > 100 |  | > 100 |  | > 100 µM |  | > 100 µM |  | > 100 µM |  | > 100 µM
12 | O=C(C(=O)c1cc(Br)ccc1O)c1cc(Br)ccc1O | 4.16 µM | 22.3 µM | 5.5 µM | > 100 µM | 2.03 µM | 7.52 µM | 4.75 µM | 18.6 µM | 6.51 | 34.9 | 22.2 | 74.8 | 3.88 µM | 13.3 µM | 4.42 µM | 30.2 µM | 3.47 µM | 90.9 µM |  | 
13 | COc1ccc(-c2cc(-c3ccco3)c(C#N)c(=O)[nH]2)cc1 |  | > 100 µM |  | > 100 µM |  | > 100 µM |  | > 100 µM |  | 72.1 |  | > 100 |  |  |  | 72.2 µM |  | > 100 µM |  | 
14 | C/C(CC(=O)Nc1cccc([N+](=O)[O-])c1)=N\NC(=O)C[n+]1ccccc1 |  | > 100 µM |  | > 100 µM |  | > 100 µM |  | > 100 µM |  | > 100 |  | > 100 |  | > 100 µM |  | > 100 µM |  |  |  | > 100 µM
